Test results published in patent US20170306388A1, “Method for the Identification of Inhibitors and Activators of Thymidylate Kinases” (Carnegie Mellon University, priority 2016, published 2017).

Columns and labels:
CaTMPK [1] = assay: NADH coupled enzyme activity assay (pyruvate kinase/lactate dehydrogenase) of CaTMPK; assay type: biochemical, Candida albicans; details: substance as phosphate acceptor, NADH decrease at 340 nm, pH 7.4
Method: The NADH coupled enzyme activity assay (Blondin, C., et al. (1994). Improved spectrophotometric assay of nucleoside monophosphate kinase activity using the pyruvate kinase/lactate dehydrogenase coupling system. Anal. Biochem 220, 219-221) is a well established assay to monitor the enzyme activity of thymidylate kinases. The assay was used to measure the activity of CaTMPK with the different phosphate acceptors (dTMP, AZTMP or dGMP). The reaction mixture consisted of 50 mM Tris-HCl (pH 7.4), 50 mM KCl, 10 mM MgCl2, 0.5 mM phosphoenolpyruvate, 0.15 mM NADH, 5 units/mL each of pyruvate kinase and lactate dehydrogenase. The reaction was initiated by adding the enzyme and the reaction rate was measured by monitoring the decrease of NADH concentration at 340 nm.

CaTMPK [2] = assay: One-dimensional proton NMR activity assay of CaTMPK; assay type: biochemical, Candida albicans; details: substance as phosphate acceptor (1 mM), 1 mM ATP as phosphate donor, pH 7.4
From the text: Three different methods to assay for TMK activity have been reported in the literature. The first method uses isotope labeled [^14C] dTMP as substrate and utilizes the separation of dTMP and dTDP by thin-layer chromatography (TLC). The next method is a coupled enzymatic assay which involves the use of pyruvate kinase and lactate dehydrogenase to couple the production of ADP (a product of TMK activity) to the oxidation of NADH to NAD^+ which can be monitored spectrophotometrically at 340 nm. The third protocol involves the use of luciferin/luciferase to measure the concentration of unreacted ATP, or the amount to ADP in the TMK reaction mixture. All of these assays have inherent problems, ranging from the use of radioactivity to the potential inhibition of the coupling enzymes. Consequently, a simple one step assay to monitor the conversion of TMP to TDP was developed. The assay relies on the difference in the pyrimidine H6 proton chemical shifts of TMP and TDP (see FIG. 4). […] The new assay of the present invention also allows for the near-continuous measurement of product production, while current high-throughput assays are quench-stop type assays.
One-dimensional proton (^1H) NMR was used to monitor the activity of CaTMPK. The assay depends on the change in the chemical shift of the H6 proton (dTMP, AZTMP) or the H8 proton (dGMP) of the nucleobases upon the addition of the second phosphate group. The assay reaction included 50 mM Tris-HCl (pH 7.4), 50 mM KCl, 10 mM MgCl2, 1 mM ATP as the phosphate donor, 1 mM phosphate acceptor (dTMP, AZTMP or dGMP) and 10% D20. The reaction was initiated by the addition of CaTMPK to the reaction mix. A series of ^1H NMR spectra were acquired and the area (or height) of the proton line corresponding to the monophosphate forms of the acceptor molecule was plotted against time to calculate the initial rates of catalysis for each of the three substrates.

SMILES: Cc1cn([C@H]2C[C@H](N=[N+]=[N-])[C@@H](COP(=O)(O)O)O2)c(=O)[nH]c1=O [AZTMP, azidothymidine monophosphate]
- kcat, coupled enzyme assay (CaTMPK [1]): 0.305 s⁻¹
- kcat, nmr assay (CaTMPK [2]): 0.533 s⁻¹

SMILES: Nc1nc2c(ncn2[C@H]2C[C@H](O)[C@@H](COP(=O)(O)O)O2)c(=O)[nH]1 [dGMP]
- kcat, coupled enzyme assay (CaTMPK [1]): 0.0083 s⁻¹
- kcat, nmr assay (CaTMPK [2]): 0.00617 s⁻¹

SMILES: Cc1cn([C@H]2C[C@H](O)[C@@H](COP(=O)(O)O)O2)c(=O)[nH]c1=O [dTMP, deoxythymidine monophosphate]
- kcat, coupled enzyme assay (CaTMPK [1]): 6.85 s⁻¹
- kcat, nmr assay (CaTMPK [2]): 8.33 s⁻¹
